The term viscosity denotes the resistance of a fluid to flow.

Our source for the viscosity values is the NIST ThermoML archive (doi:10.1016/j.tca.2009.07.008).

The conditions of data set [1]: 303.15 K; 101.33 kPa; Liquid; Capillary tube (Ostwald / Ubbelohde) method.
Data set [2] is described as follows: mn = molality of the nth substance listed, in mol/kg. As to conditions: 303.15 K, 101 kPa, Liquid, Capillary tube (Ostwald / Ubbelohde) method.

± gives the expanded uncertainty stated by the source.

Consider `C1COCCO1` [1,4-dioxane], for which the viscosity in data set [1] worked out at 1.075 ± 0.0079 mPa·s.
In the case of `CCCN` [propan-1-amine], the viscosity in data set [1] stood at 0.3527 ± 0.005 mPa·s.
Consider `CCCCN` [1-butanamine], for which, in data set [1], the viscosity came to 0.4442 ± 0.0054 mPa·s.
Same read-out and setting: the figure for `CCN(CC)CC` [triethylamine] is 0.3296 ± 0.0049 mPa·s; for `CCCNCCC` [dipropylamine] it is 0.5118 ± 0.0058 mPa·s; for `CCCCNCCCC` [dibutylamine] it is 0.7584 ± 0.0071 mPa·s.
Turning to `CCCCNCCCC` [dibutylamine] + C1CCOC1, the viscosity was 0.3333 ± 0.0047 mPa·s in data set [2] (m1 = 0.1402); 0.3417 ± 0.0048 mPa·s in data set [2] (m1 = 0.2993); 0.3498 ± 0.0048 mPa·s in data set [2] (m1 = 0.4313); 0.3567 ± 0.0048 mPa·s in data set [2] (m1 = 0.5953); 0.3648 ± 0.0048 mPa·s in data set [2] (m1 = 0.7592); 0.3735 ± 0.0049 mPa·s in data set [2] (m1 = 0.8997). Also, the viscosity in data set [2] (m1 = 1.027) was 0.3806 ± 0.0049 mPa·s; in data set [2] (m1 = 1.201), 0.3912 ± 0.0049 mPa·s; in data set [2] (m1 = 1.381), 0.4015 ± 0.005 mPa·s.
As to `CCCN(CCC)CCC` [tripropylamine], in data set [1], the viscosity amounted to 0.5977 ± 0.0062 mPa·s.
Turning to `CCCCN` [1-butanamine] + C1COCCO1, the viscosity in data set [2] (m1 = 0.1085) is reported as 1.06 ± 0.0078 mPa·s; in data set [2] (m1 = 0.2365) it was 1.046 ± 0.0077 mPa·s; in data set [2] (m1 = 0.3679), 1.032 ± 0.0077 mPa·s; in data set [2] (m1 = 0.4745), 1.02 ± 0.0076 mPa·s; in data set [2] (m1 = 0.5834) it was 1.007 ± 0.0076 mPa·s; in data set [2] (m1 = 0.7574) it was 0.9893 ± 0.0075 mPa·s. In addition, the viscosity is 0.9764 ± 0.0074 mPa·s in data set [2] (m1 = 0.8872), 0.9652 ± 0.0074 mPa·s in data set [2] (m1 = 1.004) and 0.9543 ± 0.0073 mPa·s in data set [2] (m1 = 1.116).
As to `CCCN(CCC)CCC` [tripropylamine] + C1COCCO1, the viscosity in data set [2] (m1 = 0.1093) is 1.06 ± 0.0078 mPa·s; in data set [2] (m1 = 0.2293) it was 1.045 ± 0.0077 mPa·s; in data set [2] (m1 = 0.3509), 1.032 ± 0.0077 mPa·s; in data set [2] (m1 = 0.4408) it was 1.022 ± 0.0076 mPa·s; in data set [2] (m1 = 0.5919), 1.007 ± 0.0076 mPa·s; in data set [2] (m1 = 0.7147), 0.9934 ± 0.0075 mPa·s. The viscosity in data set [2] (m1 = 0.8383) came to 0.9807 ± 0.0075 mPa·s; in data set [2] (m1 = 0.9836) it was 0.9694 ± 0.0074 mPa·s; in data set [2] (m1 = 1.151), 0.9571 ± 0.0074 mPa·s.
Regarding `CCCCN(CCCC)CCCC` [tributylamine], the viscosity in data set [1] is listed as 1.167 ± 0.0097 mPa·s.
`C1CCOC1` [tetrahydrofuran]: in data set [1], the viscosity is recorded as 0.326 ± 0.0047 mPa·s.
`CCCCNCCCC` [dibutylamine] + C1COCCO1: the viscosity in data set [2] (m1 = 0.1225) worked out at 1.065 ± 0.0078 mPa·s; in data set [2] (m1 = 0.2369), 1.053 ± 0.0078 mPa·s; in data set [2] (m1 = 0.3608), 1.04 ± 0.0077 mPa·s; in data set [2] (m1 = 0.4533) it was 1.031 ± 0.0077 mPa·s; in data set [2] (m1 = 0.594), 1.019 ± 0.0076 mPa·s; in data set [2] (m1 = 0.7122) it was 1.006 ± 0.0076 mPa·s. Moreover, the viscosity in data set [2] (m1 = 0.8855) worked out at 0.9937 ± 0.0075 mPa·s; in data set [2] (m1 = 0.9669), 0.9865 ± 0.0075 mPa·s; in data set [2] (m1 = 1.138), 0.9766 ± 0.0075 mPa·s.
With `CCCCN` [1-butanamine] + C1CCOC1, the viscosity was determined as 0.329 ± 0.0047 mPa·s in data set [2] (m1 = 0.1429); 0.3312 ± 0.0047 mPa·s in data set [2] (m1 = 0.2304); 0.336 ± 0.0047 mPa·s in data set [2] (m1 = 0.5054); 0.3398 ± 0.0047 mPa·s in data set [2] (m1 = 0.588); 0.3442 ± 0.0048 mPa·s in data set [2] (m1 = 0.7153); 0.3481 ± 0.0048 mPa·s in data set [2] (m1 = 0.8391). Further, the viscosity in data set [2] (m1 = 1.009) came to 0.351 ± 0.0048 mPa·s; in data set [2] (m1 = 1.27), 0.3549 ± 0.0048 mPa·s; in data set [2] (m1 = 1.407), 0.3619 ± 0.0048 mPa·s.
Regarding `CCCNCCC` [dipropylamine] + C1COCCO1, the viscosity is on record as 1.062 ± 0.0078 mPa·s in data set [2] (m1 = 0.0998); 1.05 ± 0.0077 mPa·s in data set [2] (m1 = 0.2282); 1.039 ± 0.0077 mPa·s in data set [2] (m1 = 0.341); 1.027 ± 0.0077 mPa·s in data set [2] (m1 = 0.4787); 1.012 ± 0.0076 mPa·s in data set [2] (m1 = 0.6261); 1.001 ± 0.0075 mPa·s in data set [2] (m1 = 0.7266). The viscosity in data set [2] (m1 = 0.8461) is recorded as 0.9902 ± 0.0075 mPa·s; in data set [2] (m1 = 0.9821) it was 0.9801 ± 0.0075 mPa·s; in data set [2] (m1 = 1.149), 0.9661 ± 0.0074 mPa·s.
